The results in this text go back to PMC10397291, “Molecular pathway and structural mechanism of human oncochannel TRPV6 inhibition by the phytocannabinoid tetrahydrocannabivarin” (Nature Communications, 2023).

Common to all, as to assay type: cell-based
One experiment addresses T1, L568Q mutant hTRPV6 (Homo sapiens, UniProt Q9H1D0, L608Q).
T1 construct: Full-length wild-type or mutant human TRPV6 was expressed in HEK 293S cells as described above; expressed in transfected cells; host or cells: HEK 293S GnTI- (baculovirus/BacMam transduction)
T1 sequence (Q9H1D0 41-765 L608Q limits assumed): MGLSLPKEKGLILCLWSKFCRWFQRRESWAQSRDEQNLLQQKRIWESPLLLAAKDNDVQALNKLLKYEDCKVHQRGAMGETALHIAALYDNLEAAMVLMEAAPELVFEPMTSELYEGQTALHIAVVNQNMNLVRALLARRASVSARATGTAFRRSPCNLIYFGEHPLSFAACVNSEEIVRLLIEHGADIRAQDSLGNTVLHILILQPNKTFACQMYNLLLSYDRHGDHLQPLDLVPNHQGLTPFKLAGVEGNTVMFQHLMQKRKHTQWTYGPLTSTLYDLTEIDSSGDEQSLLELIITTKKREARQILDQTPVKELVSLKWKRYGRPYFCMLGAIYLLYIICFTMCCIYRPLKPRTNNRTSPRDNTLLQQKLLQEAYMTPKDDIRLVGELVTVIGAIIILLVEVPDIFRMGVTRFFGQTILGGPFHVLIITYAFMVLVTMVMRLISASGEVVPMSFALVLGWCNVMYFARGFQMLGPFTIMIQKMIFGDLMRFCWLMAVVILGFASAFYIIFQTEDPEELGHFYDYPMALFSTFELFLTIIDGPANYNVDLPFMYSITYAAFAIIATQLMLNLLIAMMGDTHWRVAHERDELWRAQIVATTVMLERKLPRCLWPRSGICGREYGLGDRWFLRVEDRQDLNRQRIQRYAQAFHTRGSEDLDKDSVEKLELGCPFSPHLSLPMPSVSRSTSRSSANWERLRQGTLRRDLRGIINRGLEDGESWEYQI
Briefly: Fura-2 AM Ca2+ uptake, L568Q mutant hTRPV6.

In a further experiment the target is T2, T567A mutant hTRPV6 (Homo sapiens, UniProt Q9H1D0, T607A).
T2 construct: Full-length wild-type or mutant human TRPV6 was expressed in HEK 293S cells as described above; expressed in transfected cells; host or cells: HEK 293S GnTI- (baculovirus/BacMam transduction)
T2 sequence (Q9H1D0 41-765 T607A limits assumed): T1 sequence (Q9H1D0 41-765 L608Q limits assumed) with T567A, Q568L
Nature of the experiment: Fura-2 AM Ca2+ uptake, T567A mutant hTRPV6.

Experiment [1] relates to non-transfected HEK293 cells. Nature of the experiment: Fura-2 AM measurements in non-transfected cells (Control, non-specific effects).

Each structure is given as a SMILES string. Numbering of substitutions follows the chain as printed. Values joined by “and” are separate entries in the source; they are usually repeats but may differ in a detail not shown here. Equal entries are not always repeated.

Turning to `CCCc1cc(O)c2c(c1)OC(C)(C)[C@@H]1CCC(C)=C[C@@H]21` [THCV, tetrahydrocannabivarin], the IC50 (as a rule, the concentration at which inhibition is half-maximal) was found to be 62.1 ± 18.2 µM against L568Q mutant hTRPV6 and 12 ± 0.7 µM on T567A mutant hTRPV6. The “change in F340/F380 evoked by 10 mM Ca2+” value at T567A mutant hTRPV6 (1 μM THCV, replicates) is 1.267; in experiment [1] (1 μM THCV, non-transfected Control for L490W) it was 0.594 and 0.640 and 0.727 and 0.615 and 0.755 and 0.577 and 0.626 and 0.554; in experiment [1] (1 μM THCV, non-transfected Control for L568Q), 0.236 and 0.186 and 0.230 and 0.259; in experiment [1] (1 μM THCV, non-transfected Control for WT) it was 0.249 and 0.167 and 0.182 and 0.175 and 0.226 and 0.257 and 0.284; in experiment [1] (3 μM THCV, non-transfected Control for A561W), 0.179 and 0.153 and 0.129 and 0.145; in experiment [1] (3 μM THCV, non-transfected Control for L490W) it was 0.538 and 0.676 and 0.767 and 0.653 and 0.598 and 0.662 and 0.719 and 0.624. Also, the “change in F340/F380 evoked by 10 mM Ca2+” value is 0.250 and 0.211 and 0.221 and 0.198 in experiment [1] (3 μM THCV, non-transfected Control for L568Q); 0.179 and 0.155 and 0.221 and 0.163 and 0.257 and 0.246 and 0.260 and 0.248 in experiment [1] (3 μM THCV, non-transfected Control for WT); 0.140 and 0.130 and 0.114 and 0.151 in experiment [1] (10 μM THCV, non-transfected Control for A561W); 0.786 and 0.674 and 0.776 and 0.581 and 0.711 and 0.793 and 0.539 and 0.598 in experiment [1] (10 μM THCV, non-transfected Control for L490W); 0.183 and 0.286 and 0.214 and 0.195 in experiment [1] (10 μM THCV, non-transfected Control for L568Q); 0.157 and 0.141 and 0.174 and 0.159 and 0.185 and 0.222 and 0.233 and 0.195 in experiment [1] (10 μM THCV, non-transfected Control for WT). In addition, the “change in F340/F380 evoked by 10 mM Ca2+” value in experiment [1] (30 μM THCV, non-transfected Control for A561W) was 0.167 and 0.140 and 0.127 and 0.125; in experiment [1] (30 μM THCV, non-transfected Control for L490W), 0.558 and 0.549 and 0.721 and 0.691 and 0.606 and 0.572 and 0.500 and 0.698; in experiment [1] (30 μM THCV, non-transfected Control for L568Q), 0.187 and 0.206 and 0.233; in experiment [1] (30 μM THCV, non-transfected Control for WT), 0.137 and 0.141 and 0.135 and 0.156 and 0.185 and 0.188 and 0.221 and 0.228; in experiment [1] (100 μM THCV, non-transfected Control for A561W) it was 0.497; in experiment [1] (100 μM THCV, non-transfected Control for L490W), 0.627 and 0.939 and 0.740 and 0.797 and 0.911 and 0.811 and 1.132 and 0.767. Also, the “change in F340/F380 evoked by 10 mM Ca2+” value in experiment [1] (100 μM THCV, non-transfected Control for WT) is given as 0.644.
